From PMC11345841, “Exploring 2-Sulfonylpyrimidine Warheads as Acrylamide Surrogates for Targeted Covalent Inhibition: A BTK Story” (Journal of Medicinal Chemistry, 2024)
Where two headings read alike, the source gives them in different places.

Key:
Assay in all cases: KINOMEscan ScanTK
Format in all cases: binding
[1] = molecular target: T1, ABL1(Q252H)-nonphosphorylated (Homo sapiens, UniProt P00519, Q252H)
T1 construct: purchased Eurofins DiscoverX KINOMEscan (scanTK)

[2] = molecular target: T2, BMX (Homo sapiens, UniProt P51813)
T2 construct: purchased Eurofins DiscoverX KINOMEscan (scanTK)
T2 sequence (P51813 1-675): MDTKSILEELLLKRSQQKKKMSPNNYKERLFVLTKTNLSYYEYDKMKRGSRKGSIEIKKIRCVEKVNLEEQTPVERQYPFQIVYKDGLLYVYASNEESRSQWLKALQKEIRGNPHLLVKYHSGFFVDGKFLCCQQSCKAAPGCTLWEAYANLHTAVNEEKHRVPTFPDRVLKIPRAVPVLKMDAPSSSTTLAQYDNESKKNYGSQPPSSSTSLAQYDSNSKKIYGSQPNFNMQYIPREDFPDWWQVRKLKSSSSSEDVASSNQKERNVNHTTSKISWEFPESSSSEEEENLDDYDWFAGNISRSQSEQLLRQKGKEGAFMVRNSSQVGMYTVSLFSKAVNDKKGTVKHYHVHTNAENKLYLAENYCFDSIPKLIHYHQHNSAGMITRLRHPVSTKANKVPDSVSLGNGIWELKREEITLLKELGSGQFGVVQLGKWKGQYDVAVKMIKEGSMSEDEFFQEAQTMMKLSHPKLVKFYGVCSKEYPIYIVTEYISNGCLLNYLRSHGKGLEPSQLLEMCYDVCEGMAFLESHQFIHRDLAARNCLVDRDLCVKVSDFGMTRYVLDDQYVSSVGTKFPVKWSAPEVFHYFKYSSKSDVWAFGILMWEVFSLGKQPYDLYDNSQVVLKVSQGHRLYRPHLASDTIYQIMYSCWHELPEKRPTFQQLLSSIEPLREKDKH

[3] = molecular target: T3, EGFR (Homo sapiens, UniProt P00533); conditions: for difference in %Control versus reference compound Ib at 1 µM / remaining binding at 1 µM: EGFR; for inhibition at 1 µM: ScanTK, WT EGFR
T3 construct: purchased Eurofins DiscoverX KINOMEscan (scanTK)

[4] = molecular target: T4, EGFR(S752-I759del) (Homo sapiens, UniProt P00533, DEL752-759)
T4 construct: purchased Eurofins DiscoverX KINOMEscan (scanTK)

[5] = molecular target: T5, EPHA3 (Homo sapiens, UniProt P29320)
T5 construct: purchased Eurofins DiscoverX KINOMEscan (scanTK)
T5 sequence (P29320 21-983): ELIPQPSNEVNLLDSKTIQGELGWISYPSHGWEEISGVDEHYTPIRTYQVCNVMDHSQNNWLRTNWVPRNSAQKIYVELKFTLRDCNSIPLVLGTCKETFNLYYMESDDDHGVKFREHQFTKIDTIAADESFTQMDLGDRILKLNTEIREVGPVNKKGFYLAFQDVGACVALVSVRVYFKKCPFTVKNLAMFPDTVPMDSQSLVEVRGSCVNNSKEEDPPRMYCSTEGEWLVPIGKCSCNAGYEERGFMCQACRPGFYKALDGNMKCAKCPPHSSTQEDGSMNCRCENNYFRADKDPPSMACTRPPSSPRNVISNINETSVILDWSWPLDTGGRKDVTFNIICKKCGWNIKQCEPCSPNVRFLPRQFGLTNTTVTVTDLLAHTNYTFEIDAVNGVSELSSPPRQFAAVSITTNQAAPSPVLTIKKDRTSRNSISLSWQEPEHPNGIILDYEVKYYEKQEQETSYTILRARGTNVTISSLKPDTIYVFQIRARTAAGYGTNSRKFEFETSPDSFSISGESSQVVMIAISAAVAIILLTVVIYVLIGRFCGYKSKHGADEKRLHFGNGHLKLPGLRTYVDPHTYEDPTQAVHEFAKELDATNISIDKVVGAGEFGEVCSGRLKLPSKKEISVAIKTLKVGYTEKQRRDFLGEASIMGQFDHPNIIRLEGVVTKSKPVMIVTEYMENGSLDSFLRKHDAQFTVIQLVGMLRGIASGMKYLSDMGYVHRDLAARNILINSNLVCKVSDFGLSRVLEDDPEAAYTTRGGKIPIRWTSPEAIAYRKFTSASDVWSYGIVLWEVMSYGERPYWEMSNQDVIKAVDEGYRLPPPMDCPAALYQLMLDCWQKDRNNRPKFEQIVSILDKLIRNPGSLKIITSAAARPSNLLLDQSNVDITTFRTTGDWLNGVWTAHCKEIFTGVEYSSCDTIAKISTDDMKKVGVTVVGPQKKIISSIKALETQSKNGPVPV

[6] = molecular target: T6, FGFR4 (Homo sapiens, UniProt P22455)
T6 construct: purchased Eurofins DiscoverX KINOMEscan (scanTK)

[7] = molecular target: T7, INSRR (Homo sapiens, UniProt P14616)
T7 construct: purchased Eurofins DiscoverX KINOMEscan (scanTK)

[8] = molecular target: T8, KIT(L576P) (Homo sapiens, UniProt P10721, L576P); conditions: for difference in %Control versus Ib at 1 µM: read-out: % difference (compound - Ib %Control)
T8 construct: purchased Eurofins DiscoverX KINOMEscan (scanTK)

[9] = molecular target: T9, LCK (Homo sapiens, UniProt P06239)
T9 construct: purchased Eurofins DiscoverX KINOMEscan (scanTK)

[10] = molecular target: T10, PDGFRB (Homo sapiens, UniProt P09619)
T10 construct: purchased Eurofins DiscoverX KINOMEscan (scanTK)

[11] = molecular target: T11, RET(M918T) (Homo sapiens, UniProt P07949, M918T)
T11 construct: purchased Eurofins DiscoverX KINOMEscan (scanTK)

T8 sequence (P10721 26-976 L576P): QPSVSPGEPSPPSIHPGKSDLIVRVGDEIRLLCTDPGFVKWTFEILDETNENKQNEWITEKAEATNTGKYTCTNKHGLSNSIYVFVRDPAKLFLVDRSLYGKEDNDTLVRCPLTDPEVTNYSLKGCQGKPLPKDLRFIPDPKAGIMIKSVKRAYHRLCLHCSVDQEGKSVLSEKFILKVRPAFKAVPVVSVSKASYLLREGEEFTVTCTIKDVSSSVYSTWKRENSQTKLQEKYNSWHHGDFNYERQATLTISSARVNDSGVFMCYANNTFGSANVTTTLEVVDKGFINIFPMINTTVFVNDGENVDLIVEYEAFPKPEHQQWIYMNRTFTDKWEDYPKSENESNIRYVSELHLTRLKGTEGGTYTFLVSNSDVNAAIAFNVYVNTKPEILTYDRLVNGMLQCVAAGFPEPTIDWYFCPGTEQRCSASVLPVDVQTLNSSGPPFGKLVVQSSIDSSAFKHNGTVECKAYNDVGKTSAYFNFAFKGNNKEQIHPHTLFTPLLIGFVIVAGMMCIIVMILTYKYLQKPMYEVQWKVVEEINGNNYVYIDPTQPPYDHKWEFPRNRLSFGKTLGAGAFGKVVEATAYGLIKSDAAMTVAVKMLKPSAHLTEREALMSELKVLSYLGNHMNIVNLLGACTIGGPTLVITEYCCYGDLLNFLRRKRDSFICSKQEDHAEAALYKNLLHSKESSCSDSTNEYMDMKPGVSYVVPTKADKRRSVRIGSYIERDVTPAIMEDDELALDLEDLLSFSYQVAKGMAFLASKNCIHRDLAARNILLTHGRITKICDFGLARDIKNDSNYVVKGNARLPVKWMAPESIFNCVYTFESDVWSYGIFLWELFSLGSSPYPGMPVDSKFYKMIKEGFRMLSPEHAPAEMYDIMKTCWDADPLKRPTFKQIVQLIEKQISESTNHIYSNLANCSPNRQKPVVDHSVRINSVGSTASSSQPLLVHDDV
T7 sequence (P14616 27-1297): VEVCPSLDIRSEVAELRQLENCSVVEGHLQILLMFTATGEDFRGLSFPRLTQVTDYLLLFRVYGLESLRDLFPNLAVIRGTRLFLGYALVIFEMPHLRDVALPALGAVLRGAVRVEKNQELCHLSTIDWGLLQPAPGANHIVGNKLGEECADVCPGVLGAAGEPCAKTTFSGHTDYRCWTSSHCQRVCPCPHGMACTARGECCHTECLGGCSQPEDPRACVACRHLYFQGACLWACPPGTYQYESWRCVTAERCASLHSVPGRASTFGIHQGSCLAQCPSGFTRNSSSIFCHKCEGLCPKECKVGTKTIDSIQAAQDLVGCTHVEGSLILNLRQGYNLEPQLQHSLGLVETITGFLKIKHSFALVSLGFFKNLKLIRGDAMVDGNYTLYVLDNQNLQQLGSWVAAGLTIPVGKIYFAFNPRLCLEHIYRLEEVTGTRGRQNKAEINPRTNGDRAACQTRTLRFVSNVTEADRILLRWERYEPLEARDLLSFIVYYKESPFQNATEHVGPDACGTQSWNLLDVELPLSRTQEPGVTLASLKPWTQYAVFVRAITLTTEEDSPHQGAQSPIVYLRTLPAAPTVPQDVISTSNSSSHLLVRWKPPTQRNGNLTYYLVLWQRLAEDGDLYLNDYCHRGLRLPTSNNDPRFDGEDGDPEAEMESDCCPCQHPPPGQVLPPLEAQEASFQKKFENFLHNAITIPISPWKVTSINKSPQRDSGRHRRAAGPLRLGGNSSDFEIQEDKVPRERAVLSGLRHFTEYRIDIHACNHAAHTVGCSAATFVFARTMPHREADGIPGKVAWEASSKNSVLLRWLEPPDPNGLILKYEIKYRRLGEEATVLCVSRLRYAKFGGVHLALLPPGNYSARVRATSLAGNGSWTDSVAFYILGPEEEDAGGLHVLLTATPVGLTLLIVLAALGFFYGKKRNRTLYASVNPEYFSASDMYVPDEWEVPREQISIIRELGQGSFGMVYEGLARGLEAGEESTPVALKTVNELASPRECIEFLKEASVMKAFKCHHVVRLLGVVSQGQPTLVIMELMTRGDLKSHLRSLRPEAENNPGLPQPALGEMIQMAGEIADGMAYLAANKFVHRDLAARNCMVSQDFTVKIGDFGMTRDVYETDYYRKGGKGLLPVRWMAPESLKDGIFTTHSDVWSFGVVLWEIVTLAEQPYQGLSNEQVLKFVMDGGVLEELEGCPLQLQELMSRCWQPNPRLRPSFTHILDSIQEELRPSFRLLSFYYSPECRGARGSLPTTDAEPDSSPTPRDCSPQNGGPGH
T6 sequence (P22455 22-802): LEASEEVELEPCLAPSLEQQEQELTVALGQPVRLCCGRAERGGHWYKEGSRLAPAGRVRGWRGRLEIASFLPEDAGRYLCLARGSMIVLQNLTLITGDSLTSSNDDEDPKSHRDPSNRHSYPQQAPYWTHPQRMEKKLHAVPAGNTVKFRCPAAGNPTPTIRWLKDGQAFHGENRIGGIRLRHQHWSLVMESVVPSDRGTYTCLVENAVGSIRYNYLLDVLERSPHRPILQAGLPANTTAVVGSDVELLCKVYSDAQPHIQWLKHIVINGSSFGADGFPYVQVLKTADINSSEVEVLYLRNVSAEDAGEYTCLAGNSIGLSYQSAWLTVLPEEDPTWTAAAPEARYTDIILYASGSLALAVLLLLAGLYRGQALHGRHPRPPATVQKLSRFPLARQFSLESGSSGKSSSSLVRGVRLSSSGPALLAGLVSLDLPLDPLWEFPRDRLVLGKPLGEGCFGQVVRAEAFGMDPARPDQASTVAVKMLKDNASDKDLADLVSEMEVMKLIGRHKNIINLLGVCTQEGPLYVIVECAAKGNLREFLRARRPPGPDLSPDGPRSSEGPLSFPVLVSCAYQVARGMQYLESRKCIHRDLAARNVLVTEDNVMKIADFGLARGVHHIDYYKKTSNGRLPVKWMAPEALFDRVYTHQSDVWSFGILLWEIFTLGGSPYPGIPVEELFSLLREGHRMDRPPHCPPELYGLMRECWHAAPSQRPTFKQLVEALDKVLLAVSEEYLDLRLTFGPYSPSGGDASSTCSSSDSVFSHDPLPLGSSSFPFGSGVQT
T10 sequence (P09619 33-1106): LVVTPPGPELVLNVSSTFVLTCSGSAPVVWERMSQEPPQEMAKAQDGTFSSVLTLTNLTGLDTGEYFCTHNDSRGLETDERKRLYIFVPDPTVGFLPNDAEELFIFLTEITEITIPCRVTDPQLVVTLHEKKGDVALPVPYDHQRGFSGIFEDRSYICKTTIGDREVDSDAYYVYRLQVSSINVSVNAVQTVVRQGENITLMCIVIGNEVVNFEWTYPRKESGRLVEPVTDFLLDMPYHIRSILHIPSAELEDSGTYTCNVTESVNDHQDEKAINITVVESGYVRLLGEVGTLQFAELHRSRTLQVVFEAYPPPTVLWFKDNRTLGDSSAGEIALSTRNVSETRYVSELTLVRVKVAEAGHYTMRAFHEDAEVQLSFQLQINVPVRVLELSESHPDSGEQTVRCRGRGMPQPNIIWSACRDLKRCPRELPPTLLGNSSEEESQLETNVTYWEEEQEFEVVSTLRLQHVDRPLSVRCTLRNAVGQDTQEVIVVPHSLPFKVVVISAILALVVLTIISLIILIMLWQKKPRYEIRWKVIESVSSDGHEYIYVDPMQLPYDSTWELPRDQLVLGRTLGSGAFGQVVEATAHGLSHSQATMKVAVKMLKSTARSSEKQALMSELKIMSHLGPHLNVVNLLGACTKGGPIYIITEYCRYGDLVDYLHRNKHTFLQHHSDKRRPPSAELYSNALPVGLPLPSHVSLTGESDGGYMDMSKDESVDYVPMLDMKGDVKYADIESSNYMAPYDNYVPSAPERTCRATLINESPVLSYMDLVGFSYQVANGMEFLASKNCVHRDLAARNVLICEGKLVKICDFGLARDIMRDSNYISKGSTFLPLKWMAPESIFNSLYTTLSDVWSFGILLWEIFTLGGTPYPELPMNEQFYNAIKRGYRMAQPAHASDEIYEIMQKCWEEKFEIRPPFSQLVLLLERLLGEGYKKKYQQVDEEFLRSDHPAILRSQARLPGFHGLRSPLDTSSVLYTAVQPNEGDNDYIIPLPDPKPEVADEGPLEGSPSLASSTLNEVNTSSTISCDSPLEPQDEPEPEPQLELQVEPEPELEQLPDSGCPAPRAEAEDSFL
T4 sequence (P00533 with tags, fused parts or gaps DEL752-759 limits assumed): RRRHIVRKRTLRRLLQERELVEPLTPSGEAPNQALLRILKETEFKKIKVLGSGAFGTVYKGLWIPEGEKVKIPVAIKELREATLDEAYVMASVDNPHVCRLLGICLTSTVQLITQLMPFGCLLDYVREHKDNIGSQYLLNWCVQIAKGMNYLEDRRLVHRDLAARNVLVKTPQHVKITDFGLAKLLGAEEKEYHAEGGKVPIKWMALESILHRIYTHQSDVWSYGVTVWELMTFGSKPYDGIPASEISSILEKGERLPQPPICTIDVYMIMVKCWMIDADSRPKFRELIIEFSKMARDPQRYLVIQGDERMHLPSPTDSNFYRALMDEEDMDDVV
T9 sequence (P06239 whole entry): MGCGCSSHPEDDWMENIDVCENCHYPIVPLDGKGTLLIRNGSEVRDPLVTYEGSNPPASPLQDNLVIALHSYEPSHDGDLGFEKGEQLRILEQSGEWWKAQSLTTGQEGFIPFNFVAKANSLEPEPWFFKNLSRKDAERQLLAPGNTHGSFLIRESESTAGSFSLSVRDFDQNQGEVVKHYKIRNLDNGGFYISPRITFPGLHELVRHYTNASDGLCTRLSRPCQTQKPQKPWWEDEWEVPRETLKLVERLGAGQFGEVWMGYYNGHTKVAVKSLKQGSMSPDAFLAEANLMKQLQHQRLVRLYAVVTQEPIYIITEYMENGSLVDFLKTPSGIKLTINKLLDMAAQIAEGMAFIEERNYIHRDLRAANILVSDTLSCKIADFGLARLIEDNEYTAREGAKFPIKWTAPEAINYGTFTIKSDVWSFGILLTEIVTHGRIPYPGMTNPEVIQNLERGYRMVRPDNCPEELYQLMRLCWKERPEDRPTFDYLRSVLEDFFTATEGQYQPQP

| Compound | difference in %Control versus reference compound Ib at 1 µM ([1]; @1000nM) | remaining binding at 1 µM ([1]; @1000nM, read-out: %Control) | remaining binding at 1 µM ([1]; read-out: %Control @1000nM) | difference in %Control versus compound Ib at 1 µM ([2]; @1000nM) | remaining binding at 1 µM ([2]; @1000nM, read-out: %Control) | remaining binding at 1 µM ([2]; read-out: %Control @1000nM) | difference in %Control versus reference compound Ib at 1 µM ([3]; @1000nM) | remaining binding at 1 µM ([3]; @1000nM, read-out: %Control) | remaining binding at 1 µM ([3]; read-out: %Control @1000nM) | inhibition at 1 µM [3] | difference in %Control versus compound Ib at 1 µM ([4]; @1000nM) | remaining binding at 1 µM ([4]; @1000nM, read-out: %Control) | remaining binding at 1 µM ([4]; read-out: %Control @1000nM) | difference in % of control versus compound Ib at 1 µM ([5]; @1000nM) | remaining binding at 1 µM ([5]; @1000nM, read-out: %Control) | remaining binding at 1 µM ([5]; read-out: %Control @1000nM) | difference in %Control from compound Ib at 1 µM ([6]; @1000nM) | remaining binding at 1 µM ([6]; @1000nM, read-out: %Control) | remaining binding at 1 µM ([6]; read-out: %Control @1000nM) | difference in %Control versus compound Ib at 1 µM ([7]; @1000nM) | further results |
| --- | --- | --- | --- | --- | --- | --- | --- | --- | --- | --- | --- | --- | --- | --- | --- | --- | --- | --- | --- | --- | --- |
| Cc1cnc(S(C)(=O)=O)nc1N1CCCC(n2nc(-c3ccc(Oc4ccccc4)cc3)c3c(N)ncnc32)C1 (centres unmarked) [Compound 8a, 1-(1-(5-Methyl-2-(methylsulfonyl)pyrimidin-4-yl)piperidin-3-yl)-3-(4-phenoxyphenyl)-1H-pyrazolo[3,4-d]pyrimidin-4-amine] | 25% | 38% | 38% | -3% | 38% | 38% | 52.8% | 53% | 53% | 47% | 98% | 100% | 100% | 5% | 81% | 81% | 1% | 97% | 97% | -2% | remaining binding at 1 µM ([7]; @1000nM, read-out: %Control): 94%; remaining binding at 1 µM ([7]; read-out: %Control @1000nM): 94%; difference in %Control versus Ib at 1 µM ([8]; @1000nM): 12%; remaining binding at 1 µM ([8]; @1000nM, read-out: %Control): 44%; remaining binding at 1 µM ([8]; read-out: %Control @1000nM): 44%; remaining binding at 1 µM ([9]; @1000nM, read-out: %Control): 2%; remaining binding at 1 µM ([9]; read-out: %Control @1000nM): 2%; remaining binding at 1 µM ([10]; @1000nM, read-out: %Control): 27%; remaining binding at 1 µM ([10]; read-out: %Control @1000nM): 27%; remaining binding at 1 µM ([11]; @1000nM, read-out: %Control): 53%; remaining binding at 1 µM ([11]; read-out: %Control @1000nM): 53% |
| CCOC(=O)c1cnc(S(C)(=O)=O)nc1N1CCC[C@@H](n2nc(-c3ccc(Oc4ccccc4)cc3)c3c(N)ncnc32)C1 [Compound 8c, Ethyl (R)-4-(3-(4-Amino-3-(4-phenoxyphenyl)-1H-pyrazolo[3,4-d]pyrimidin-1-yl)piperidin-1-yl)-2-(methylsulfonyl)pyrimidine-5-carboxylate] | 23% | 36% | 36% | 28% | 69% | 69% | 42.8% | 43% | 43% | 57% | 98% | 100% | 100% | 1% | 77% | 77% | -5% | 91% | 91% | -9% | remaining binding at 1 µM ([7]; @1000nM, read-out: %Control): 87%; remaining binding at 1 µM ([7]; read-out: %Control @1000nM): 87%; difference in %Control versus Ib at 1 µM ([8]; @1000nM): 32%; remaining binding at 1 µM ([8]; @1000nM, read-out: %Control): 64%; remaining binding at 1 µM ([8]; read-out: %Control @1000nM): 64%; remaining binding at 1 µM ([9]; @1000nM, read-out: %Control): 25%; remaining binding at 1 µM ([9]; read-out: %Control @1000nM): 25%; remaining binding at 1 µM ([10]; @1000nM, read-out: %Control): 87%; remaining binding at 1 µM ([10]; read-out: %Control @1000nM): 87%; remaining binding at 1 µM ([11]; @1000nM, read-out: %Control): 87%; remaining binding at 1 µM ([11]; read-out: %Control @1000nM): 87% |
